Experimental data: patent publication US20220135622A1, “ANTIBACTERIAL PEPTIDES AND METHODS OF USE” (priority 2019, published 2022)
Square brackets hold non-standard residues; d marks the D form. Peptide text beside a SMILES is read from it. Dap = NC[C@H](N)C(=O)O

Tests used:
red blood cell = experiment: Red blood cell lysis assay; assay type: cell-based; details: 50 μM, after 4 hrs, FIG. 16B
S. aureus USA300 = experiment: MIC assay, S. aureus USA300; assay type: cell-based, Staphylococcus aureus; details: Table 5; USA300 Gram-positive control
How it was run: (§1)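 Peptides were serially diluted 2-fold in cation-adjusted Mueller Hinton II broth (top final 400-800 μM) with log-phase or overnight-plate bacteria at final OD600 ~0.0002. EDTA was added at 0.5 mM final for E. coli and 0.125 mM for USA300. MIC was read as OD600 after 20 h at 37° C.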

[1] = test system: E. coli K-12 (pmrA^G53E and mcr-1); experiment: MIC against E. coli K-12 with PMX-resistance determinants (summary); assay type: cell-based, Escherichia coli; details: range over pmrA and mcr-1 strains
Protocol: (§2) Bacterial growth conditions. LB or Mueller Hinton II cation-adjusted broth (MHB II, BBL 212322) was prepared according to manufacturer's instructions and supplemented with arabinose at 0.02% for overnight growth or at indicated concentrations in the description of the figures. Bacterial cultures were grown at 37° C. When appropriate, media was supplemented with kanamycin (50 μg/mL), carbenicillin (50 μg/mL), chloramphenicol (12.5 or 25 μg/mL), hygromycin (200 μg/mL), and/or gentamicin (10 μg/mL).
(§3) Peptide sensitivity and MIC assays. Lyophilized peptides (Smartox Biotechnology, CPC Scientific. ABclonal) were solubilized to 10 mM in Tris buffer, pH 8, prior to making a 2-fold dilution series in MHBII cation adjusted broth with highest final assay concentration of 400-800 μM. Bacteria were grown to log phase and added to final OD600˜0.001. The final EDTA concentration was 0.5 mM for E. coli strains and 0.125 mM for USA300. The final volume of 10 μL/well in a 384 well black, clear bottom plate (Corning) was spun <1 min at <250×g and then incubated at 37° C. After 4 h, an equal volume (10 μL) of BacTiter-Glo™ (Promega) was added to each well and luminescence was read after 5 min on an EnVision plate reader (PerkinElmer). […] Plates were incubated at 37° C. for 20 h before measuring OD600 with an EnVision plate reader.

[2] = test system: Staphylococcus aureus (USA300); experiment: Bacterial growth inhibition, Staphylococcus aureus (USA300); assay type: cell-based; details: Gram-positive bacterium lacking LPS
Protocol: as §2, §3

A. baumannii = assay type: cell-based, Acinetobacter baumannii; details: Table 5; ATCC 19606, WT
How it was run: as §1

E. coli BW25113 = assay type: cell-based, Escherichia coli; details: Table 5; E. coli K-12 (BW25113), WT
How it was run: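 For MIC, bacteria (final OD600 ~0.0002) were incubated with 2-fold peptide dilutions (top 400–800 μM) in cation-adjusted MHB II with or without EDTA, 20 h at 37 °C, read by OD600. EDTA was 0.5 mM for E. coli and 0.125 mM for USA300. The growth-inhibition assay used log-phase cells at OD600 ~0.001, 4 h at 37 °C, BacTiter-Glo luminescence.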

E. coli mcr-1 = assay type: cell-based, Escherichia coli; details: Table 5; colistin^R
How it was run: as §1

[3] = test system: Enterobacter cloacae, Klebsiella pneumoniae, Acinetobacter baumannii, and Pseudomonas aeruginosa; experiment: MIC against wild-type bacterial pathogens (summary over species); assay type: cell-based; details: range over the four wild-type pathogens
Protocol: as §2, §3

E. coli-ATCC 25922 = experiment: MIC assay, E. coli ATCC 25922; assay type: cell-based, Escherichia coli; details: Table 5; E. coli ATCC 25922, WT with O-antigen
Protocol: as §2, §3

E. cloacae = experiment: MIC assay, E. cloacae; assay type: cell-based, Enterobacter cloacae; details: Table 5; ATCC 222, WT
Protocol: as §2, §3

E. coli imp4213 = experiment: MIC assay, E. coli imp4213; assay type: cell-based, Escherichia coli; details: Table 5; permeable
How it was run: as §1

K. pneumoniae = assay type: cell-based, Klebsiella pneumoniae; details: Table 5; ATCC 43816, WT
How it was run: as §1

P. aeruginosa = assay type: cell-based, Pseudomonas aeruginosa; details: Table 5; PA-14, WT
How it was run: as §1

E. coli K12 = experiment: Time-kill: colony forming units of E. coli K12 over time; assay type: cell-based, Escherichia coli; details: E. coli K12, FIG. 16A
E. coli pmrA^G53Y = experiment: MIC assay, E. coli pmrA^G53Y (BW25113); assay type: cell-based, Escherichia coli; details: Table 5; colistin^R
Protocol: as §2, §3

Compound: CSCC[C@H](NC(=O)[C@@H]1CCCN1C(=O)[C@H](Cc1ccc(O)cc1)NC(C)=O)C(=O)N[C@@H](CN)C(=O)N[C@@H](Cc1ccccc1)C(=O)N[C@@H](CCCNC(=N)N)C(=O)N[C@@H](CCCNC(=N)N)C(=O)N[C@@H](Cc1ccccc1)C(=O)N[C@@H](CC(C)C)C(=O)N[C@@H](CCC(=O)O)C(=O)N[C@@H](CCCCN)C(=O)N[C@@H](Cc1c[nH]c2ccccc12)C(=O)NCC(=O)N[C@@H](CC(C)C)C(=O)N[C@@H](CC(C)C)C(=O)N[C@@H](CCCNC(=N)N)C(N)=O [SEQ ID NO: 69, YPM(Dap)FRRFLEKWGLLR] (Ac-YPM[Dap]FRRFLEKWGLLR-NH2)
- red blood cell lysis (red blood cell): no observe lysis
- MICs (S. aureus USA300): 400 µM
- MICs [1]: 12.5 to 25 µM
- growth inhibition [2]: impacted only at very high concentrations
- MICs (A. baumannii): 12.5 µM
- MICs (E. coli BW25113): 25 µM
- MICs (E. coli mcr-1): 25 µM
- MICs [3]: 12.5 to 200 µM
- MICs (E. coli-ATCC 25922): 50 µM
- MICs (E. cloacae): 12.5 µM
- MICs (E. coli imp4213): 6.25 µM
- MICs (K. pneumoniae): 100 µM
- MICs (P. aeruginosa): 200 µM
- time-kill kinetics (CFUs over time) (E. coli K12): bactericidal
- MICs (E. coli pmrA^G53Y): 12.5 µM
